Measurements as given in ChEMBL document CHEMBL1201862, “PubChem BioAssay data set” (2004).
Activity calls are given as the source filed them.

Assays:
[1] = target: T1, Runt-related transcription factor 1/Core-binding factor subunit beta (Homo sapiens, UniProt Q01196+Q13951); assay: disruptors of Runt domain/CBFb-SMMHC interaction – biochemical, FRET, Cerulean-Runt, Venus-CBFb-SMMHC, uHTS, […] (AID 1434); format: protein assay
Bcl-2-like protein 10 = target: T2, Bcl-2-like protein 10 (Homo sapiens, UniProt Q9HD36); assay: Bcl-B/TR3 peptide binding disruption – biochemical, fluorescence polarization, FITC-TR3 peptide, selectivity assay for Bfl-1 inhibitor project, primary screen (AID 748);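 also: fluorescence polarization from a fluorescein-labelled TR3 peptide binding purified Bcl-B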
T2 sequence (Q9HD36 whole entry): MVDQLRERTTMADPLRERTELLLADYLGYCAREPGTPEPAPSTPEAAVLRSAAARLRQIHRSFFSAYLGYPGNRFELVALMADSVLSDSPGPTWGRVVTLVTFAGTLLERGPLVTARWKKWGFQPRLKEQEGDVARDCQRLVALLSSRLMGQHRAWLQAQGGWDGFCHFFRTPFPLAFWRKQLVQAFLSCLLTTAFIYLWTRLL

[2] = target: T1, Runt-related transcription factor 1/Core-binding factor subunit beta; assay: Runt domain/CBFb-SMMHC interaction disruptors – biochemical, TR-FRET (AID 1438); format: protein assay
[3] = target: Glutathione-S-transferase (Schistosoma japonicum, UniProt Q26513); assay: GST-antibody interaction or FRET quenching – biochemical, TR-FRET, artefact control for Vif-APOBEC3G degradation inhibitor project, dose response (AID 1117362); format: functional
Mu-type opioid receptor [4] = target: T3, Mu-type opioid receptor (Homo sapiens, UniProt P35372); assay: mu opioid receptor activators, image-based, SAR follow-up (AID 2352); format: functional
[5] = target: T4, Delta-type opioid receptor (Homo sapiens, UniProt P41143); assay: delta opioid receptor blockers – image-based, SAR follow-up (AID 2357); format: functional
[6] = target: T5, Kappa-type opioid receptor (Homo sapiens, UniProt P41145); assay: kappa opioid receptor blockers, image-based, SAR follow-up (AID 2348); format: functional
[7] = target: T5, Kappa-type opioid receptor; assay: kappa opioid receptor blockers, cell-based, luminescence, beta-arrestin, SAR follow-up (AID 2285); format: functional
[8] = target: T5, Kappa-type opioid receptor; assay: kappa opioid receptor activation potency – imaging, image-based, SAR follow-up (AID 2359); format: functional
Mu-type opioid receptor [9] = target: T3, Mu-type opioid receptor; assay: mu opioid receptor blockers – image-based, SAR follow-up (AID 2420); format: functional;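 also: compounds added before stimulation of receptor with agonist DAMGO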
[10] = target: T4, Delta-type opioid receptor; assay: DOR agonists, SAR follow-up, image-based (AID 2370); format: functional
Troponin, cardiac muscle = Troponin, cardiac muscle (Homo sapiens, UniProt P19429+P45379+P63316); assay: Fluorescence-based biochemical high throughput dose response assay for activators of the calcium sensitivity of cardiac Regulated Thin Filaments (RTF). [Related pubchem assays (depositor defined):AID493008, AID493018, AID504382, AID504383]; format: protein-complex assay
[11] = target: T6, Endoribonuclease toxin MazF (Escherichia coli K-12, UniProt P0AE70); assay: activation of MazEF endoribonuclease cleavage – biochemical, fluorescence, single-stranded RNA substrate, uHTS hits, dose response (AID 588481); format: functional
T6 sequence (P0AE70 whole entry): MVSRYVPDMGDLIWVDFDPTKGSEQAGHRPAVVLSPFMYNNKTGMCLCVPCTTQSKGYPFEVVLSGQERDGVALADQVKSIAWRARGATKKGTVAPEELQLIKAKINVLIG

[12] = target: T7, Tyrosine-protein phosphatase non-receptor type 22 (Homo sapiens, UniProt Q9Y2R2); format: functional
T7 sequence (Q9Y2R2 whole entry): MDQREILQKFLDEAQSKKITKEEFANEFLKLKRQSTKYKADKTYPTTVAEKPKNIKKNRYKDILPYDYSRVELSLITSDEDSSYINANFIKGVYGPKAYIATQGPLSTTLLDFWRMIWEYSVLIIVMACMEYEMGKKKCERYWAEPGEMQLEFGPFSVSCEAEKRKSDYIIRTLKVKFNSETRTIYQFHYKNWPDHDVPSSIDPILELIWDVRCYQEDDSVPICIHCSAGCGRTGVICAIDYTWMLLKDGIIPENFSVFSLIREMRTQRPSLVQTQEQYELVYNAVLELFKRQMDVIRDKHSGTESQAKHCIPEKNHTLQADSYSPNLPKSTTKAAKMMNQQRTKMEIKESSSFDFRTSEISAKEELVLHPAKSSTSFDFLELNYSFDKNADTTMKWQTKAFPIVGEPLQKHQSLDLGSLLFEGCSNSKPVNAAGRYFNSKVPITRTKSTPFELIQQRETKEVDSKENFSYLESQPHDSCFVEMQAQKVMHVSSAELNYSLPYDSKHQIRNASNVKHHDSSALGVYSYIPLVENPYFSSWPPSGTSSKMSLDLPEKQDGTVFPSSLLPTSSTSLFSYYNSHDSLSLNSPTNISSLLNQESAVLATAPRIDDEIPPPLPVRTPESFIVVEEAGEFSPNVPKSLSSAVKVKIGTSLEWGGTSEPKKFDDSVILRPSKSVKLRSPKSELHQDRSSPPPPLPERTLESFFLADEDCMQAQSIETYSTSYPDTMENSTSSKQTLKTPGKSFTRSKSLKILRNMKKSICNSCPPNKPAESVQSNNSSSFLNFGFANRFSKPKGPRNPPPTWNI

[13] = target: T6, Endoribonuclease toxin MazF; assay: substrate-only fluorescence increase artefacts – biochemical, single-stranded RNase substrate, counter-screen for MazEF activator project, dose response (AID 588502); format: functional
[14] = target: T7, Tyrosine-protein phosphatase non-receptor type 22; format: functional; remark: listed apart in the source
[15] = target: T8, Tyrosine-protein phosphatase non-receptor type 7 (Homo sapiens, UniProt P35236); format: functional
T8 sequence (P35236 whole entry): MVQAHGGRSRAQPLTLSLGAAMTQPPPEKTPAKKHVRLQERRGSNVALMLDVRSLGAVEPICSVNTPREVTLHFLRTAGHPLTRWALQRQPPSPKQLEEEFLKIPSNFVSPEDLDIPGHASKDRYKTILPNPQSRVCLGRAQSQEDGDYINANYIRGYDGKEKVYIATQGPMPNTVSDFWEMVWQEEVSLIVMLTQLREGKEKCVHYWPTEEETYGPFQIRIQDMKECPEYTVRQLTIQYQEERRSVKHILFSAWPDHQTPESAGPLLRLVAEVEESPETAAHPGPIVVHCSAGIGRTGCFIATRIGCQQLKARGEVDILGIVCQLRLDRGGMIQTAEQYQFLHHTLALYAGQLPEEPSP

Cannabinoid receptor 2 [16] = target: T9, Cannabinoid receptor 2 (Homo sapiens, UniProt P34972); assay: SAR analysis of antagonists of the Cannabinoid Receptor 2 using an Image-Based Assay - Set 2. [Related pubchem assays (depositor defined):AID1961, AID1965]; format: functional
Cannabinoid receptor 1 = Cannabinoid receptor 1 (Homo sapiens, UniProt P21554); assay: SAR analysis of antagonists of the Cannabinoid Receptor 1 using an Image-Based Assay. [Related pubchem assays (depositor defined):AID1961, AID1965]; format: functional
[17] = target: T10, G-protein coupled receptor 55 (Homo sapiens, UniProt Q9Y2T6); assay: selective activators of receptor GPR55 – imaging, U2OS cells, beta-arrestin-GFP redistribution, primary screen (AID 1961); format: functional
[18] = target: T10, G-protein coupled receptor 55; assay: SAR analysis of selective Agonists of GPR55 using an Image-Based Assay. [Related pubchem assays (depositor defined):AID1961, AID1965]; format: functional
Cannabinoid receptor 2 [19] = target: T9, Cannabinoid receptor 2; assay: SAR analysis of agonists of the Cannabinoid Receptor 2 using an Image-Based Assay - Set 2. [Related pubchem assays (depositor defined):AID1961, AID1965]; format: functional
[20] = target: T11, Dual specificity protein phosphatase 3 (Homo sapiens, UniProt P51452); assay: VHR1 phosphatase inhibitors, primary screen, biochemical, absorbance, uHTS (AID 1654)
[21] = target: T12, Dual specificity protein phosphatase 6 (Rattus norvegicus, UniProt Q64346); assay: inhibition of rat DUSP6 enzyme activity – biochemical, in vitro, primary screen (AID 425)
T12 sequence (Q64346 whole entry): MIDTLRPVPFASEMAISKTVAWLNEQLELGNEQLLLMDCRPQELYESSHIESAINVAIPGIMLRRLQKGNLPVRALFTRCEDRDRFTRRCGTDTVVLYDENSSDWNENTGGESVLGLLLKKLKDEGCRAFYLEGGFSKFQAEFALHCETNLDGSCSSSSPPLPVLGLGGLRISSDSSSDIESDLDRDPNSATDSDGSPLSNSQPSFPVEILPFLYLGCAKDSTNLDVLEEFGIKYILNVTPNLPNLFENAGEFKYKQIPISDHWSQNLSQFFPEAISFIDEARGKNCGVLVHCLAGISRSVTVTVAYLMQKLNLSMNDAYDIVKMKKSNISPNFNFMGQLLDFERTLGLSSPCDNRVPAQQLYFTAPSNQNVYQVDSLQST

[22] = target: Induced myeloid leukemia cell differentiation protein Mcl-1 (Homo sapiens, UniProt Q07820); format: functional
[23] = target: T13, Voltage-gated N-type calcium channel alpha-1B subunit/Amyloid beta A4 precursor protein-binding family A member 1 (Homo sapiens, UniProt Q00975+Q02410); format: protein assay
[24] = target: Eukaryotic translation initiation factor 4E (Mus musculus, UniProt P63073); assay: blockers of eIF4G binding by eIF4E – biochemical, TR-FRET, dose response (AID 855); format: functional;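 also: potency for disrupting eIF4E binding to eIF4GI seen as loss of FRET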
[25] = target: T11, Dual specificity protein phosphatase 3; assay: VHR1 phosphatase inhibitors, biochemical (AID 1878)
[26] = target: T13, Voltage-gated N-type calcium channel alpha-1B subunit/Amyloid beta A4 precursor protein-binding family A member 1; format: protein assay; remark: listed apart in the source
[27] = target: Signal transducer and activator of transcription 1-alpha/beta (Homo sapiens, UniProt P42224); assay: STAT3 blockade with qPCR and toxicity readouts – cell-based, STAT1 panel, cytotoxicity, late-stage follow-up, panel member STAT1 Inhibition (AID 2078)
[28] = target: Signal transducer and activator of transcription 3 (Homo sapiens, UniProt P40763); assay: STAT3 blockade with qPCR and toxicity readouts – cell-based, STAT1 panel, cytotoxicity, late-stage follow-up, panel member STAT3 Inhibition (AID 2078)
[29] = target: T5, Kappa-type opioid receptor; assay: SAR analysis of small molecule agonists of the kappa opioid receptor via a luminescent beta-arrestin assay - Set 3. [Related pubchem assays (depositor defined):AID1777, AID1785, AID1786, AID1966, AID2133, AID2136, AID2284, AID2500]; format: functional

## CN1CCc2c(sc3c2c(NCc2ccco2)nc2nnnn23)C1
[1]
  IC50: 80 µM (inactive)
Bcl-2-like protein 10
  IC50: 38.8 µM (active)
[2]
  IC50: 56.3 µM (inactive)
[3]
  IC50: 31.1 µM (active)

## Cc1ccc(C)c(N2CCN(CCCNC(=O)CCn3c(=O)c4cccn4c4cccnc43)CC2)c1
Mu-type opioid receptor [4]
  EC50: > 32 µM (inactive)
[5]
  IC50: > 32 µM (inactive)
[6]
  IC50: > 32 µM (inactive)
[7]
  IC50: > 10 µM (inactive)
[8]
  EC50: > 32 µM (inactive)
Mu-type opioid receptor [9]
  IC50: > 32 µM (inactive)
[10]
  EC50: > 32 µM (inactive)

## Cc1ccc(N=Nc2c(O)n(CN3CCOCC3)c3ccccc23)cc1
Troponin, cardiac muscle
  EC50: > 71.5 µM (inactive)
[11]
  EC50: 39.4 µM (inactive)
[12]
  IC50: > 79.4 µM (inactive)
[13]
  EC50: 50.5 µM (inactive)
[14]
  IC50: > 79.4 µM (inactive)
[15]
  IC50: > 79.4 µM (inactive)

## CN(C)S(=O)(=O)c1ccc(N2CCCC2)c(C(=O)N2CCN(c3ccc([N+](=O)[O-])cc3)CC2)c1
Cannabinoid receptor 2 [16]
  IC50: > 32 µM (inactive)
Cannabinoid receptor 1
  IC50: > 32 µM (inactive)
[17]
  EC50: 689 nM (active)
[18]
  EC50: 660 nM (active)
Cannabinoid receptor 2 [19]
  EC50: > 32 µM (inactive)

## COc1cc(/C=C2\SC(=O)N(c3ccc(Cl)cc3)C2=O)cc([N+](=O)[O-])c1O
[20]
  IC50: 2.92 µM (active)
[21]
  IC50: > 158 µM (not active)
[22]
  IC50: 3.07 µM (active)
[23]
  IC50: > 56.8 µM (not active)
[24]
  IC50: 50 µM (inactive)
[25]
  IC50: 2.3 µM (active)
[26]
  IC50: > 50 µM (inactive)

## O=C(c1ccccc1)C1CCN(c2ncnc3sc4c(c23)CCCC4)CC1
[27]
  IC50: > 55.7 µM (inactive)
[28]
  IC50: > 18.6 µM (inactive)

## Cc1ccc2nc(O)c(CN(Cc3ccccc3)C(=O)c3ccccn3)cc2c1
[29]
  EC50: 9.25 µM (active)
